From PubChem BioAssay AID330 (DTP/NCI, 2004)
Values joined by “and” are separate entries in the source; they are usually repeats but may differ in a detail not shown here. Equal entries are not always repeated. Inconclusive results and toxic doses are left out.

System: P388 leukemia ip, CD2F1 mice, survival T/C
Test: NCI In Vivo Anticancer Drug Screen. Data for tumor model P388 Leukemia (intraperitoneal) in CD2F1 (CDF1) mice
Settings: endpoint: median survival time, higher = longer survival
Method in brief: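 Mice carrying the transplanted tumor received test compound or vehicle. Survival was recorded in each group, and the value is the treated-group measurement divided by that of the vehicle-treated control group.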

[1] = dose: 100.0 mg/kg/injection, schedule: Q01DX009 (ip), vehicle: saline with Tween-80
[2] = dose: 200.0 mg/kg/injection, schedule: Q01DX009 (ip), vehicle: saline with Tween-80
[3] = dose: 100.0 mg/kg/injection, schedule: Q04DX003 (ip), vehicle: Klucel (hydroxypropylcellulose) (HPC)
[4] = dose: 200.0 mg/kg/injection, schedule: Q04DX003 (ip), vehicle: Klucel (hydroxypropylcellulose) (HPC)
[5] = dose: 400.0 mg/kg/injection, schedule: Q04DX003 (ip), vehicle: Klucel (hydroxypropylcellulose) (HPC)

## O=C(Nc1ccc(C2=NCCN2)cc1)c1ccc(C(=O)Nc2ccc(C3=NCCN3)cc2)c(F)c1
dose: 12.5 mg/kg/injection, schedule: Q04DX003 (ip), vehicle: saline with Tween-80
  T/C: 109 % of control
dose: 25.0 mg/kg/injection, schedule: Q04DX003 (ip), vehicle: saline with Tween-80
  T/C: 122 % of control
[1]
  T/C: 181 % of control
[2]
  T/C: 250 % of control
dose: 264.0 mg/kg/injection, schedule: Q04DX003 (ip), vehicle: saline with Tween-80
  T/C: 200 % of control
dose: 400.0 mg/kg/injection, schedule: Q01DX009 (ip), vehicle: saline with Tween-80
  T/C: 272 % of control
dose: 400.0 mg/kg/injection, schedule: Q04DX003 (ip), vehicle: saline with Tween-80
  T/C: 245 % of control
dose: 600.0 mg/kg/injection, schedule: Q04DX003 (ip), vehicle: saline with Tween-80
  T/C: 259 % of control

## CCOC(=O)C=C1CCC2(CC1)SCCS2
dose: 100.0 mg/kg/injection, schedule: Q01DX001 (ip), vehicle: other
  T/C: 104 % of control
dose: 200.0 mg/kg/injection, schedule: Q01DX001 (ip), vehicle: other
  T/C: 114 % of control
dose: 400.0 mg/kg/injection, schedule: Q01DX001 (ip), vehicle: other
  T/C: 117 % of control

## Cc1cc2oc(=O)cc(C(=O)O)c2c(=O)o1
[3]
  T/C: 102 % of control
[4]
  T/C: 95 % of control
[5]
  T/C: 87 % of control

## O=C(O)CCCc1ccc(N(CCCl)CCCl)cc1
dose: 1.0 mg/kg/injection, schedule: Q01DX005 (ip), vehicle: saline with Tween-80
  T/C: 106 % of control
dose: 1.0 mg/kg/injection, schedule: Q03HX024 (ip), vehicle: saline
  T/C: 109 % of control
dose: 1.25 mg/kg/injection, schedule: Q01DX005 (ip), vehicle: saline with Tween-80
  T/C: 113 % of control and 119 % of control and 121 % of control
dose: 1.3 mg/kg/injection, schedule: Q01DX009 (ip), vehicle: saline + alcohol
  T/C: 117 % of control
dose: 2.0 mg/kg/injection, schedule: Q01DX005 (ip), vehicle: saline with Tween-80
  T/C: 113 % of control
dose: 2.0 mg/kg/injection, schedule: Q03HX016 (ip), vehicle: saline
  T/C: 123 % of control
dose: 2.0 mg/kg/injection, schedule: Q03HX024 (ip), vehicle: saline
  T/C: 163 % of control
dose: 2.0 mg/kg/injection, schedule: Q04DX003 (ip), vehicle: Klucel (hydroxypropylcellulose) (HPC)
  T/C: 110 % of control
dose: 2.2 mg/kg/injection, schedule: Q01DX009 (ip), vehicle: saline + alcohol
  T/C: 120 % of control
dose: 2.59 mg/kg/injection, schedule: Q04DX002 (ip), vehicle: saline with Tween-80
  T/C: 114 % of control
dose: 3.24 mg/kg/injection, schedule: Q01DX009 (ip), vehicle: Klucel (hydroxypropylcellulose) (HPC)
  T/C: 160 % of control
dose: 3.6 mg/kg/injection, schedule: Q01DX009 (ip), vehicle: saline + alcohol
  T/C: 115 % of control
dose: 3.75 mg/kg/injection, schedule: Q01DX009 (ip), vehicle: Klucel (hydroxypropylcellulose) (HPC)
  T/C: 118 % of control
dose: 4.0 mg/kg/injection, schedule: Q01DX009 (ip), vehicle: saline
  T/C: 120 % of control
dose: 4.0 mg/kg/injection, schedule: Q01DX009 (sc), vehicle: saline
  T/C: 118 % of control
dose: 4.0 mg/kg/injection, schedule: Q03HX008 (ip), vehicle: saline
  T/C: 150 % of control
dose: 4.0 mg/kg/injection, schedule: Q03HX016 (ip), vehicle: saline
  T/C: 204 % of control
dose: 4.0 mg/kg/injection, schedule: Q04DX003 (ip), vehicle: Klucel (hydroxypropylcellulose) (HPC)
  T/C: 111 % of control
dose: 4.32 mg/kg/injection, schedule: Q04DX002 (ip), vehicle: saline with Tween-80
  T/C: 119 % of control
dose: 4.5 mg/kg/injection, schedule: Q01DX009 (ip), vehicle: saline + alcohol
  T/C: 153 % of control
dose: 5.0 mg/kg/injection, schedule: Q01DX009 (ip), vehicle: saline + alcohol
  T/C: 154 % of control
dose: 5.4 mg/kg/injection, schedule: Q01DX009 (ip), vehicle: Klucel (hydroxypropylcellulose) (HPC)
  T/C: 180 % of control
dose: 6.7 mg/kg/injection, schedule: Q01DX009 (ip), vehicle: saline + alcohol
  T/C: 180 % of control
dose: 7.5 mg/kg/injection, schedule: Q01DX009 (ip), vehicle: Klucel (hydroxypropylcellulose) (HPC)
  T/C: 122 % of control
dose: 8.0 mg/kg/injection, schedule: Q01DX005 (ip), vehicle: saline with Tween-80
  T/C: 186 % of control
dose: 8.0 mg/kg/injection, schedule: Q01DX009 (ip), vehicle: saline
  T/C: 170 % of control
dose: 8.0 mg/kg/injection, schedule: Q01DX009 (sc), vehicle: saline
  T/C: 118 % of control
dose: 8.0 mg/kg/injection, schedule: Q03HX016 (ip), vehicle: saline
  T/C: 200 % of control
dose: 8.0 mg/kg/injection, schedule: Q03HX024 (ip), vehicle: saline
  T/C: 90 % of control
dose: 8.0 mg/kg/injection, schedule: Q04DX003 (ip), vehicle: saline
  T/C: 113 % of control
dose: 8.0 mg/kg/injection, schedule: Q04DX003 (ip), vehicle: water
  T/C: 113 % of control
dose: 9.0 mg/kg/injection, schedule: Q01DX009 (ip), vehicle: Klucel (hydroxypropylcellulose) (HPC)
  T/C: 152 % of control
dose: 10.0 mg/kg/injection, schedule: Q01DX009 (ip), vehicle: saline + alcohol
  T/C: 166 % of control and 172 % of control and 183 % of control
dose: 10.0 mg/kg/injection, schedule: Q01DX009 (ip), vehicle: saline with Tween-80
  T/C: 160 % of control
dose: 15.0 mg/kg/injection, schedule: Q01DX009 (ip), vehicle: Klucel (hydroxypropylcellulose) (HPC)
  T/C: 115 % of control
dose: 15.0 mg/kg/injection, schedule: Q01DX009 (ip), vehicle: saline with Tween-80
  T/C: 173 % of control
dose: 16.0 mg/kg/injection, schedule: Q01DX001 (ip), vehicle: saline
  T/C: 113 % of control
dose: 16.0 mg/kg/injection, schedule: Q01DX001 (sc), vehicle: saline
  T/C: 104 % of control
dose: 16.0 mg/kg/injection, schedule: Q01DX005 (ip), vehicle: saline with Tween-80
  T/C: 176 % of control
dose: 16.0 mg/kg/injection, schedule: Q01DX009 (sc), vehicle: saline
  T/C: 122 % of control
dose: 16.0 mg/kg/injection, schedule: Q03HX008 (ip), vehicle: saline
  T/C: 186 % of control
dose: 16.0 mg/kg/injection, schedule: Q03HX016 (ip), vehicle: saline
  T/C: 95 % of control
dose: 16.0 mg/kg/injection, schedule: Q04DX003 (ip), vehicle: Klucel (hydroxypropylcellulose) (HPC)
  T/C: 169 % of control
dose: 16.0 mg/kg/injection, schedule: Q08DX002 (ip), vehicle: saline
  T/C: 154 % of control
dose: 16.7 mg/kg/injection, schedule: Q01DX009 (ip), vehicle: saline + alcohol
  T/C: 120 % of control
dose: 20.0 mg/kg/injection, schedule: Q01DX009 (ip), vehicle: saline with Tween-80
  T/C: 187 % of control
dose: 20.0 mg/kg/injection, schedule: Q04DX002 (ip), vehicle: saline with Tween-80
  T/C: 163 % of control
dose: 27.8 mg/kg/injection, schedule: Q01DX009 (ip), vehicle: saline + alcohol
  T/C: 59 % of control
dose: 32.0 mg/kg/injection, schedule: Q01DX001 (sc), vehicle: saline
  T/C: 109 % of control
dose: 32.0 mg/kg/injection, schedule: Q04DX003 (ip), vehicle: Klucel (hydroxypropylcellulose) (HPC)
  T/C: 100 % of control
dose: 32.0 mg/kg/injection, schedule: Q04DX003 (ip), vehicle: saline
  T/C: 190 % of control
dose: 32.0 mg/kg/injection, schedule: Q04DX003 (ip), vehicle: water
  T/C: 154 % of control and 212 % of control
dose: 32.0 mg/kg/injection, schedule: Q08DX002 (ip), vehicle: saline
  T/C: 190 % of control
dose: 64.0 mg/kg/injection, schedule: Q01DX001 (sc), vehicle: saline
  T/C: 113 % of control

## COC(=O)C1=CN(c2ccccc2)C(=O)C1
[3]
  T/C: 118 % of control
[4]
  T/C: 114 % of control
[5]
  T/C: 108 % of control

## O=C(O)CSc1nc(-c2ccccc2)c(-c2ccccc2)n1-c1ccccn1
dose: 25.0 mg/kg/injection, schedule: Q01DX009 (ip), vehicle: water
  T/C: 103 % of control and 124 % of control
dose: 50.0 mg/kg/injection, schedule: Q01DX009 (ip), vehicle: water
  T/C: 108 % of control and 97 % of control
dose: 100.0 mg/kg/injection, schedule: Q01DX009 (ip), vehicle: water
  T/C: 118 % of control and 122 % of control and 86 % of control
dose: 200.0 mg/kg/injection, schedule: Q01DX009 (ip), vehicle: water
  T/C: 115 % of control and 86 % of control

## Cc1cc(N(CCCl)CCCl)ccc1N=Nc1cccc2ccccc12
dose: 50.0 mg/kg/injection, schedule: Q01DX009 (ip), vehicle: saline with Tween-80
  T/C: 105 % of control
[1]
  T/C: 115 % of control
[2]
  T/C: 123 % of control

## CC(C)(C)C1(C#N)C(=O)N(c2ccc(Cl)cc2)C12c1ccccc1-c1ccccc12 (stereo unspecified)
dose: 50.0 mg/kg/injection, schedule: Q01DX009 (ip), vehicle: Klucel (hydroxypropylcellulose) (HPC)
  T/C: 99 % of control
dose: 100.0 mg/kg/injection, schedule: Q01DX009 (ip), vehicle: Klucel (hydroxypropylcellulose) (HPC)
  T/C: 118 % of control
dose: 200.0 mg/kg/injection, schedule: Q01DX009 (ip), vehicle: Klucel (hydroxypropylcellulose) (HPC)
  T/C: 105 % of control
